The values below are quoted from earlier work in patent US20150140121A1, “Compositions and Methods for Tight Junction Modulation” (Lankenau Institute for Medical Research, priority 2012, published 2015).

Series [1] has as its system claudin 5. The following applies: berberine; CACO-2 and HT-29/B6 cell layers; cited from earlier work.
Series [2] has as its system occludin. The following applies: CACO-2 and HT-29/B6 cell layers, cited from earlier work.
The test system of series [3] is claudin 3. The following applies: berberine; CACO-2 and HT-29/B6 cell layers; cited from earlier work.
The test system of series [4] is claudin 7. The following applies: berberine; CACO-2 and HT-29/B6 cell layers; cited from earlier work.
The test system of series [5] is claudin-1. The note with it: berberine; CACO-2 and HT-29/B6 cell layers; cited from earlier work.
Series [6] has as its system colonc epithelial (CACO-2 and HT-29/B6) cell layers. The note with it: berberine 50 micromolar, Li et al. 2010, Amasheh et al. 2010; cited from earlier work.
Series [7] relates to claudin-4. The note with it: berberine; CACO-2 and HT-29/B6 cell layers; cited from earlier work.
For series [8], the system named is claudin 2. The note with it: berberine; CACO-2 and HT-29/B6 cell layers; cited from earlier work.
Series [9] has as its system occludin. The following applies: selenium (e.g., 100 ng/ml); Martin et al. 2007; cited from earlier work.
The test system of series [10] is ZO-1. The following applies: selenium (e.g., 100 ng/ml); Martin et al. 2007; cited from earlier work.
The subject of series [11] is mammary epithelial barrier. The note with it: selenium (e.g., 100 ng/ml), Martin et al. 2007; cited from earlier work.
The subject of series [12] is mammary epithelial barrier. The following applies: selenium at supplemental concentration (e.g., 100 ng/ml); Martin et al. 2007; cited from earlier work.

Molecules are shown by their SMILES.

With `COc1ccc2cc3[n+](cc2c1OC)CCc1cc2c(cc1-3)OCO2` [berberine], the “amount of claudin 5” value in series [1] is “no effect”. Further, in series [2] (berberine 50 micromolar), the “occludin redistribution that ensues from proinflammatory cytokine exposure” value is recorded as “prevents”. Moreover, the amount of occludin result in series [2] (berberine) is “no effect”. In addition, the “amount of claudin 3” value in series [3] is reported as “no effect”. Further, in [4], the “amount of claudin 7” value was “no effect”. For the same molecule, the “cellular amount of claudin 1” value in series [5] is listed as “Strong effects”. Also, the “TJ leakiness that ensues from proinflammatory cytokine exposure” value in series [6] is on record as “prevents”. Besides, in series [7], the “amount of claudin 4” value was “no effect”. Moreover, the “cellular amount of claudin 2” value in [8] is “Strong effects”.
With `[Se]` [Selenium], the “cellular redistribution of occludin from cytosolic to junctional regions” value in series [9] is listed as “cellular redistribution”. For the same molecule, in series [10], the “cellular redistribution of ZO-1 from cytosolic to junctional regions” value was “cellular redistribution”. In addition, the “paracellular invasion of cancer cells” value in series [11] is “decreased”. In series [12], the Rt entry is on record as “increased”.
